# The source made the active and inactive calls.
# Assays:
# Troponin, cardiac muscle = Troponin, cardiac muscle (Homo sapiens, UniProt P19429+P45379+P63316); assay: compounds desensitizing RTF to calcium – biochemical, fluorescence, cardiac regulated thin filaments, triplicate IC50, dose response (AID 504742); format: protein-complex assay
# ORF 73 = biological target: T1, ORF 73 (Human herpesvirus 8, UniProt O40947); assay: KSHV LANA DNA-binding disruption – biochemical, fluorescence polarization, cherry-picked samples, dose response (AID 504725); parameters: species or system Human gammaherpesvirus 8;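 further: fluorescence polarization of a labeled DNA duplex reporting LANA DNA binding; potency is for inhibitors that block LANA binding to the DNA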
# T1 sequence (O40947 whole entry): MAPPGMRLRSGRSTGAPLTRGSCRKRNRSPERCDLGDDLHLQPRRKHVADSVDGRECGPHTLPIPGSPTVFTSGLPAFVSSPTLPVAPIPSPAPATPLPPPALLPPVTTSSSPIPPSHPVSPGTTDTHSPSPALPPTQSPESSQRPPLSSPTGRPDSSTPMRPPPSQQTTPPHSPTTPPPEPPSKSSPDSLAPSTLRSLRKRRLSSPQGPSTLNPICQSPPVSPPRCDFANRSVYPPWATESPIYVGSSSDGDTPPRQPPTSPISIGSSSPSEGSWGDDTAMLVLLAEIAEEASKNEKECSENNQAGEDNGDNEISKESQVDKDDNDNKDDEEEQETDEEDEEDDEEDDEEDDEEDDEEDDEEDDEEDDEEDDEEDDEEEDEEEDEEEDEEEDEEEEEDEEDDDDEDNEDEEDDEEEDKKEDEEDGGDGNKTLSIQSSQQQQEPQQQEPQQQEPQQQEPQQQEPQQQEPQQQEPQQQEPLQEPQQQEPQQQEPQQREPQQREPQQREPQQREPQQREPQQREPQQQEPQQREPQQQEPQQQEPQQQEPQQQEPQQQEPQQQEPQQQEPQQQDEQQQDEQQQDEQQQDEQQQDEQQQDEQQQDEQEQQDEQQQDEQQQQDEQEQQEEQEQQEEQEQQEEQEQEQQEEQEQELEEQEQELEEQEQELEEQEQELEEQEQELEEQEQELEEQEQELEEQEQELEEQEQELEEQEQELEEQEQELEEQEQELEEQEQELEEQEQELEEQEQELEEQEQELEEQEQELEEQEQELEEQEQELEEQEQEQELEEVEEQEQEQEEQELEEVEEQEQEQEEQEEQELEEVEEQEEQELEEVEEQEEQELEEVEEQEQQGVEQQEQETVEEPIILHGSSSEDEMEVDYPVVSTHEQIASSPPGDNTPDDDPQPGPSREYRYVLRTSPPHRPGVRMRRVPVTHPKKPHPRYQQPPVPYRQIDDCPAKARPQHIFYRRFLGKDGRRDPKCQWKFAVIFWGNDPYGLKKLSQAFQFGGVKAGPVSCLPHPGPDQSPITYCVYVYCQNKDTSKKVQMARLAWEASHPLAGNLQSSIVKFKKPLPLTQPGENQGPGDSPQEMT
structure (smiles),measurement,setting,value
O=C(O)c1ccc2c(c1)[C@@H]1C=CC[C@@H]1[C@H](c1ccccn1)N2,IC50,"Troponin, cardiac muscle",> 71.5 µM (inactive)
same,AC50,ORF 73,21.7 µM (active)

# From ChEMBL document CHEMBL1201862, “PubChem BioAssay data set” (2004)
